Values of other authors, collected in patent US20070203140A1, “N-hydroxyguanidines as modulators of indoleamine 2,3-dioxygenase” (priority 2006, published 2007).

Key:
LLC tumors = LLC tumors in C57B1/6 mice, versus placebo
P815 tumor = settings: pre-immunized immune-competent mice

Cn1cc(C[C@H](N)C(=O)O)c2ccccc21 [Example 1-MT, 1-methyl-tryptophan]
formation of tumors (LLC tumors): markedly delayed | growth of tumors (P815 tumor): inhibited
